Measurements from the NIST ThermoML archive (doi:10.1021/je0601208).

Experiments:
[1] = xn = mol fraction of the nth substance listed
[2] = refractive index (Na D-line) (dimensionless); xn = mol fraction of the nth substance listed; conditions: 100.5 kPa, Liquid, Standard Abbe refractometry

CCOC(=O)Cc1ccccc1 [ethyl phenylacetate] + CCO
Conditions	refractive index, 288.15 K	refractive index, 298.15 K	refractive index, 308.15 K	refractive index, 318.15 K	surface tension liquid-gas, 288.15 K [mN/m]	surface tension liquid-gas, 298.15 K [mN/m]	surface tension liquid-gas, 308.15 K [mN/m]	surface tension liquid-gas, 318.15 K [mN/m]
[1], x1 = 0.05	–	–	–	–	23.9	23.1	22.2	21.2
[1], x1 = 0.1	–	–	–	–	24.6	23.7	22.8	21.8
[1], x1 = 0.15	–	–	–	–	25.2	24.3	23.4	22.4
[1], x1 = 0.2	–	–	–	–	25.9	24.9	23.9	22.9
[1], x1 = 0.25	–	–	–	–	26.5	25.5	24.5	23.5
[1], x1 = 0.3	–	–	–	–	27.2	26.1	25.1	24.1
[1], x1 = 0.35	–	–	–	–	27.8	26.7	25.7	24.7
[1], x1 = 0.4	–	–	–	–	28.4	27.3	26.2	25.4
[1], x1 = 0.45	–	–	–	–	29.1	27.9	26.8	26
[1], x1 = 0.5	–	–	–	–	29.7	28.5	27.4	26.6
[1], x1 = 0.55	–	–	–	–	30.3	29.1	28	27.2
[1], x1 = 0.6	–	–	–	–	31	29.7	28.6	27.8
[1], x1 = 0.65	–	–	–	–	31.6	30.3	29.2	28.4
[1], x1 = 0.7	–	–	–	–	32.2	30.9	29.8	29
[1], x1 = 0.75	–	–	–	–	32.8	31.6	30.4	29.5
[1], x1 = 0.8	–	–	–	–	33.5	32.1	31	30.1
[1], x1 = 0.85	–	–	–	–	34.1	32.8	31.6	30.7
[1], x1 = 0.9	–	–	–	–	34.7	33.4	32.2	31.4
[1], x1 = 0.95	–	–	–	–	35.3	33.9	32.8	32
[1], x1 = 1	–	–	–	–	35.9	34.6	33.5	32.8
[2], x1 = 0.05	1.38109	1.37693	1.37265	1.36852	–	–	–	–
[2], x1 = 0.1	1.39604	1.3918	1.38745	1.38323	–	–	–	–
[2], x1 = 0.15	1.4087	1.40441	1.40003	1.39573	–	–	–	–
[2], x1 = 0.2	1.41969	1.41536	1.41093	1.40653	–	–	–	–
[2], x1 = 0.25	1.42932	1.42491	1.42047	1.41597	–	–	–	–
[2], x1 = 0.3	1.4379	1.43347	1.42899	1.42447	–	–	–	–
[2], x1 = 0.35	1.44556	1.44111	1.43661	1.43203	–	–	–	–
[2], x1 = 0.4	1.45242	1.44792	1.44342	1.43878	–	–	–	–
[2], x1 = 0.45	1.45856	1.45402	1.44951	1.44484	–	–	–	–
[2], x1 = 0.5	1.46406	1.45953	1.455	1.4503	–	–	–	–
[2], x1 = 0.55	1.46909	1.46454	1.45999	1.45524	–	–	–	–
[2], x1 = 0.6	1.47365	1.46908	1.46451	1.45975	–	–	–	–
[2], x1 = 0.65	1.47785	1.47324	1.46869	1.46391	–	–	–	–
[2], x1 = 0.7	1.48174	1.47713	1.47255	1.46775	–	–	–	–
[2], x1 = 0.75	1.48536	1.48072	1.47613	1.47132	–	–	–	–
[2], x1 = 0.8	1.48865	1.48403	1.47943	1.47458	–	–	–	–
[2], x1 = 0.85	1.4917	1.48707	1.48248	1.47763	–	–	–	–
[2], x1 = 0.9	1.49461	1.48996	1.48539	1.48053	–	–	–	–
[2], x1 = 0.95	1.4973	1.49266	1.4881	1.48323	–	–	–	–
[2], x1 = 1	1.49971	1.49513	1.49063	1.48583	–	–	–	–
